Reference: PubChem BioAssay AID1259411 (Chemical Carcinogenesis Research Information System (CCRIS), 2018)
The source made the active and inactive calls. The rule behind the calls is not given here.

Tested on: rodent carcinogenicity bioassays, tumor incidence
Test: CCRIS carcinogenicity studies
Procedure, shortened: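 Archive of carcinogenicity, mutagenicity, tumor promotion and tumor inhibition results drawn from journals, NCI reports and other sources, expert-reviewed; covers 1985-2011 and is no longer updated.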

Measured: carcinogen call

CN1[C@@H]2CC(OC(=O)[C@H](CO)c3ccccc3)C[C@H]1[C@@H]1O[C@@H]12 (stereo partly specified)
inactive: Species: MOUSE, Strain/Sex: B6C3F1/FEMALE, Route: GAVAGE, Dose: 0, 1, 5, 25 MG/KG IN DISTILLED WATER FOR 104-105 WK (STUDY DURATION: 105 WK), Dose: 0, 1, 5, 25 MG/KG IN DISTILLED WATER FOR 104-105 WK (STUDY DURATION: 105 WK) inactive; negative | Species: MOUSE, Strain/Sex: B6C3F1/FEMALE, Route: GAVAGE, Dose: 0, 25 MG/KG IN WATER 5 D/WK FOR 104 WK, CONTROL AND DOSED GROUPS FED AD LIBITUM (STUDY DURATION: 104 WK) inactive; negative | Species: MOUSE, Strain/Sex: B6C3F1/FEMALE, Route: GAVAGE, Dose: 0, 25 MG/KG IN WATER 5 D/WK FOR 104 WK, CONTROL GROUP DIET RESTRICTED TO LIMIT WEIGHTS TO 85% OF AD LIBITUM-FED GROUP (S inactive; negative | Species: MOUSE, Strain/Sex: B6C3F1/FEMALE, Route: GAVAGE, Dose: 0, 25 MG/KG IN WATER 5 D/WK FOR 104 WK, CONTROL GROUP WAS WEIGHT-MATCHED TO DOSED GROUP (STUDY DURATION: 104 WK) inactive; negative | Species: MOUSE, Strain/Sex: B6C3F1/FEMALE, Route: GAVAGE, Dose: 0, 25 MG/KG IN WATER 5 D/WK FOR 157 WK, CONTROL GROUP DIET RESTRICTED TO LIMIT WEIGHTS TO 85% OF AD LIBITUM-FED GROUPS ( inactive; negative | Species: MOUSE, Strain/Sex: B6C3F1/MALE, Route: GAVAGE, Dose: 0, 1, 5, 25 MG/KG IN DISTILLED WATER FOR 104-105 WK (STUDY DURATION: 105 WK), Dose: 0, 1, 5, 25 MG/KG IN DISTILLED WATER FOR 104-105 WK (STUDY DURATION: 105 WK) inactive; negative | Species: MOUSE, Strain/Sex: B6C3F1/MALE, Route: GAVAGE, Dose: 0, 25 MG/KG IN WATER 5 D/WK FOR 104 WK, CONTROL AND DOSED GROUPS FED AD LIBITUM (STUDY DURATION: 104 WK) inactive; negative | Species: MOUSE, Strain/Sex: B6C3F1/MALE, Route: GAVAGE, Dose: 0, 25 MG/KG IN WATER 5 D/WK FOR 104 WK, CONTROL GROUP DIET RESTRICTED TO LIMIT WEIGHTS TO 85% OF AD LIBITUM FED GROUP (S inactive; negative | Species: MOUSE, Strain/Sex: B6C3F1/MALE, Route: GAVAGE, Dose: 0, 25 MG/KG IN WATER 5 D/WK FOR 104 WK, CONTROL GROUP WAS WEIGHT-MATCHED TO DOSED GROUP (STUDY DURATION: 104 WK) inactive; negative | Species: MOUSE, Strain/Sex: B6C3F1/MALE, Route: GAVAGE, Dose: 0, 25 MG/KG IN WATER 5 D/WK FOR 157 WK, CONTROL GROUP DIET RESTRICTED TO LIMIT WEIGHTS TO 85% OF AD LIBITUM-FED GROUPS ( inactive; negative | Species: RAT, Strain/Sex: F344/FEMALE, Route: GAVAGE, Dose: 1, 5, 25 MG/KG IN DISTILLED WATER FOR 104 WK (STUDY DURATION: 104 WK), Dose: 1, 5, 25 MG/KG IN DISTILLED WATER FOR 104 WK (STUDY DURATION: 104 WK) inactive; negative | Species: RAT, Strain/Sex: F344/MALE, Route: GAVAGE, Dose: 0, 1, 5, 25 MG/KG IN DISTILLED WATER FOR 104 WK (STUDY DURATION: 104 WK), Dose: 0, 1, 5, 25 MG/KG IN DISTILLED WATER FOR 104 WK (STUDY DURATION: 104 WK) inactive; negative

Nc1ccc(N=Nc2ccccc2)c(N)n1
active: Species: MOUSE, Strain/Sex: B6C3F1/FEMALE, Route: ORAL, Dose: 0, 600, 1200 PPM IN DIET, Dose: 0, 600, 1200 PPM IN DIET, Tumor Site: Type of Lesion: LIVER: HEPATOCELLULAR ADENOMA OR HEPATOCELLULAR CARCINOMA active; positive | Species: MOUSE, Strain/Sex: B6C3F1/MALE, Route: ORAL, Dose: 0, 600, 1200 PPM IN DIET, Dose: 0, 600, 1200 PPM IN DIET active; positive | Species: RAT, Strain/Sex: F344/FEMALE, Route: ORAL, Dose: 0, 3700, 7500 PPM IN DIET, Dose: 0, 3700, 7500 PPM IN DIET, Tumor Site: Type of Lesion: COLON: ADENOCARCINOMA (NOS) active; positive | Species: RAT, Strain/Sex: F344/MALE, Route: ORAL, Dose: 0, 3700, 7500 PPM IN DIET, Dose: 0, 3700, 7500 PPM IN DIET, Tumor Site: Type of Lesion: INTESTINES (COLON OR RECTUM): ADENOCARCINOMA (NOS), ADENOCARCINOMA (NOS) OR ADENOMA (NOS) active; positive

CCCCNC(=O)n1c(NC(=O)OC)nc2ccccc21
active: Species: Mouse, Strain/Sex: CD-1/Female (80/group), Route: Oral, Dose: 0, 500, 1500, 7500 for 37 wk reduced to 5000 ppm in feed for 2 yr, Dose: 0, 500, 1500, 7500 for 37 wk reduced to 5000 ppm in feed for 2 yr, Tumor Site: Type of Lesion: Liver: Hepatocellular adenoma (2/64, 2/60, 7/73, 7/68), Hepatocellular carcinoma (2/64, 7/60, 6/73, 14/68), Combined (4/, Tumor Site: Type of Lesion: Liver: Hepatocellular adenoma (2/64, 2/60, 7/73, 7/68), Hepatocellular carcinoma (2/64, 7/60, 6/73, 14/68), Combined (4/ active; positive; purity 99%; additional study details in california epa department of p | Species: Mouse, Strain/Sex: CD-1/Male (80/group), Route: Oral, Dose: 0, 500, 1500, 7500 for 37 wk reduced to 5000 ppm in feed for 2 yr, Dose: 0, 500, 1500, 7500 for 37 wk reduced to 5000 ppm in feed for 2 yr, Tumor Site: Type of Lesion: Liver: Hepatocellular adenoma (9/60, 9/75, 11/73, 10/76), Hepatocellular carcinoma (16/60, 26/75, 41/73, 17/76), Combine, Tumor Site: Type of Lesion: Liver: Hepatocellular adenoma (9/60, 9/75, 11/73, 10/76), Hepatocellular carcinoma (16/60, 26/75, 41/73, 17/76), Combine active; positive; purity 99%; additional study details in california epa department of p

CCCN(CCC)c1c([N+](=O)[O-])cc(C(F)(F)F)cc1[N+](=O)[O-]
inactive: Species: MOUSE, Strain/Sex: B6C3F1/FEMALE, Route: ORAL, Dose: 0, 563, 2250, 4500 PPM IN DIET FOR 2 YR (STUDY DURATION: 2 YR), Dose: 0, 563, 2250, 4500 PPM IN DIET FOR 2 YR (STUDY DURATION: 2 YR) inactive; negative | Species: MOUSE, Strain/Sex: B6C3F1/MALE, Route: ORAL, Dose: 0, 563, 2250, 4500 PPM IN DIET FOR 2 YR (STUDY DURATION: 2 YR), Dose: 0, 563, 2250, 4500 PPM IN DIET FOR 2 YR (STUDY DURATION: 2 YR) inactive; negative | Species: MOUSE, Strain/Sex: B6C3F1/MALE, Route: ORAL, Dose: 0, 2000, 3744 PPM IN DIET, TWA, Dose: 0, 2000, 3744 PPM IN DIET, TWA inactive; negative | Species: MOUSE, Strain/Sex: NMRI/FEMALE, Route: ORAL, Dose: 0, 50, 200, 800 MG/KG IN DIET FOR 104 WK (STUDY DURATION: 104 WK), Dose: 0, 50, 200, 800 MG/KG IN DIET FOR 104 WK (STUDY DURATION: 104 WK) inactive; negative | Species: MOUSE, Strain/Sex: NMRI/MALE, Route: ORAL, Dose: 0, 50, 200, 800 MG/KG IN DIET FOR 104 WK (STUDY DURATION: 104 WK), Dose: 0, 50, 200, 800 MG/KG IN DIET FOR 104 WK (STUDY DURATION: 104 WK) inactive; negative | Species: RAT, Strain/Sex: OSBORNE-MENDEL/FEMALE, Route: ORAL, Dose: 0, 4125, 7917 PPM IN DIET, TWA, Dose: 0, 4125, 7917 PPM IN DIET, TWA inactive; negative | Species: RAT, Strain/Sex: OSBORNE-MENDEL/MALE, Route: ORAL, Dose: 0, 4125, 8000 PPM IN DIET, TWA, Dose: 0, 4125, 8000 PPM IN DIET, TWA inactive; negative | Species: RAT, Strain/Sex: WISTAR/FEMALE, Route: ORAL, Dose: 0, 200, 800, 3200 MG/KG IN DIET FOR 122 WK (STUDY DURATION: 122 WK), Dose: 0, 200, 800, 3200 MG/KG IN DIET FOR 122 WK (STUDY DURATION: 122 WK) inactive; negative | Species: RAT, Strain/Sex: WISTAR/MALE, Route: ORAL, Dose: 0, 200, 800, 3200 MG/KG IN DIET FOR 122 WK (STUDY DURATION: WK), Dose: 0, 200, 800, 3200 MG/KG IN DIET FOR 122 WK (STUDY DURATION: WK) inactive; negative
active: Species: MOUSE, Strain/Sex: B6C3F1/FEMALE, Route: ORAL, Dose: 0, 2740, 5192 PPM IN DIET, TWA, Dose: 0, 2740, 5192 PPM IN DIET, TWA, Tumor Site: Type of Lesion: LUNG: ALVEOLAR/BRONCHIOLAR ADENOMA OR CARCINOMA, LIVER: HEPATOCELLULAR ADENOMA OR CARCINOMA active; positive

ClCCN(CCCl)c1ccc2ccccc2c1
active: Species: HUMAN, Route: ORAL, Tumor Site: Type of Lesion: URINARY BLADDER active; positive | Species: MOUSE, Strain/Sex: STRAIN-A, Route: INTRAPERITONEAL, Dose: 75, 300, 1200, 4800 MG/KG IN 12 DOSES OVER 4 WK, Dose: 75, 300, 1200, 4800 MG/KG IN 12 DOSES OVER 4 WK, Tumor Site: Type of Lesion: LUNG: ADENOMA active; positive | Species: RAT, Route: SUBCUTANEOUS, Dose: 40 MG IN REPEATED DOSES, Tumor Site: Type of Lesion: INJECTION SITE active; positive
